{"source": "ChEMBL document CHEMBL4842358", "about": "“Design, synthesis and biological evaluation of sphingosine-1-phosphate receptor 2 antagonists as potent 5-FU-resistance reversal agents for the treatment of colorectal cancer” (Eur J Med Chem, 2021)", "key": {"[1]": {"experiment": "AUC (0 to t) in Sprague-Dawley rat blood at 1 mg/kg, iv measured for 24 hrs by LC-MS/MS analysis", "assay_type": "ADME, organism-based", "set-up": "time 24 hrs, dose 1 mg/kg"}, "[2]": {"experiment": "Half life in Sprague-Dawley rat blood at 1 mg/kg, iv measured for 24 hrs by LC-MS/MS analysis", "assay_type": "ADME, organism-based"}, "[3]": {"experiment": "Initial drug concentration in Sprague-Dawley rat blood at 1 mg/kg, iv by LC-MS/MS analysis", "assay_type": "ADME, organism-based"}, "[4]": {"experiment": "Initial plasma concentration in Sprague-Dawley rat at 1 mg/kg, iv by LC-MS/MS analysis", "assay_type": "ADME, organism-based"}, "[5]": {"experiment": "Toxicity in athymic nude mouse xenografted with human SW620/5-FU cells assessed as histopathological changes in liver at 12.5 mg/kg/day, iv administered for 24 days in presence of 5-FU and measured on day 24 by immunohistochemistry", "assay_type": "organism-based", "conditions": "in vivo, 576 h, time 24 day"}, "[6]": {"test_system": "Mus musculus", "experiment": "Downregulation of DPD expression in liver of athymic nude mouse xenografted with human SW620/5-FU at 12.5 mg/kg/day, iv administered for 24 days in presence of 5-FU and measured on day 24 by immunohistochemistry", "assay_type": "functional, organism-based", "conditions": "time 24.0 day"}, "[7]": {"test_system": "Mus musculus", "experiment": "Downregulation of DPD expression in tumour of athymic nude mouse xenografted with human SW620/5-FU at 12.5 mg/kg/day, iv administered for 24 days in presence of 5-FU and measured on day 24 by immunohistochemistry", "assay_type": "functional, organism-based", "conditions": "time 24.0 day"}, "[8]": {"experiment": "Reversal of 5-FU resistance against human SW620/5-FU cells xenografted in athymic nude mouse assessed as potentiation of 5-FU induced antitumor activity by measuring inhibition of tumor growth at 12.5 mg/kg/day, iv administered for 24 days in presence of 5-FU (reference value: 18.54%)", "assay_type": "functional", "conditions": "576 h, time 24 day, read-out: TGI"}, "[9]": {"experiment": "Toxicity in athymic nude mouse xenografted with human SW620/5-FU cells assessed as body weight loss at 12.5 mg/kg/day, iv administered for 24 days in presence of 5-FU and measured after 12 days", "assay_type": "organism-based", "conditions": "in vivo, 288 h, time 12 day"}, "[10]": {"molecular_target": "T1, Sphingosine 1-phosphate receptor 2 (Homo sapiens, UniProt O95136)", "T1 sequence (O95136 whole entry)": "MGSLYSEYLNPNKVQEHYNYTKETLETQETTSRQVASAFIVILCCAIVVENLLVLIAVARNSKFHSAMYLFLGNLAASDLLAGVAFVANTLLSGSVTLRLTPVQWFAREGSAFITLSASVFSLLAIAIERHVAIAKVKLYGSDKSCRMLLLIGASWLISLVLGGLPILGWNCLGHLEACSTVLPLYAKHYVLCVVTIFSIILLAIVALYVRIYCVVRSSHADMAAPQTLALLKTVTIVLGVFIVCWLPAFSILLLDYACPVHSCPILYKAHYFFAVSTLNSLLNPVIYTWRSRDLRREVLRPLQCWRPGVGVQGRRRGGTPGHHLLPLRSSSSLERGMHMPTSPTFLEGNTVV", "experiment": "Binding affinity to S1PR2 (unknown origin) assessed as association constant measured for 60 secs by surface plasmon resonance assay", "conditions": "filed as antagonist, time 60.0 sec"}, "[11]": {"molecular_target": "T1, Sphingosine 1-phosphate receptor 2", "experiment": "Binding affinity to S1PR2 (unknown origin) assessed as dissociation constant measured for 60 secs by surface plasmon resonance assay"}, "[12]": {"molecular_target": "T1, Sphingosine 1-phosphate receptor 2", "experiment": "Binding affinity to S1PR2 (unknown origin) measured by surface plasmon resonance assay", "conditions": "filed as antagonist"}, "[13]": {"experiment": "Reversal of 5-FU resistance against human SW620/5-FU cells assessed as inhibition of cell proliferation measured after 72 hrs in presence of 5-FU by MTT assay", "assay_type": "functional, cell-based"}, "[14]": {"test_system": "HCT-116", "experiment": "Reversal of 5-FU resistance against human HCT-116 cells overexpressing DPD assessed as inhibition of cell proliferation measured after 72 hrs in presence of 5-FU by MTT assay", "assay_type": "functional, cell-based", "conditions": "HCT-116, 72 h"}, "[15]": {"test_system": "NCM460", "experiment": "Cytotoxicity against human NCM460 cells assessed as cell viability measured after 72 hrs in presence of 5-FU by MTT assay", "assay_type": "cell-based", "conditions": "NCM460, 72 h"}, "[16]": {"molecular_target": "T1, Sphingosine 1-phosphate receptor 2", "experiment": "Antagonist activity at S1PR2 in human SW620/5-FU cells assessed as reduction of DPD-catalyzed 5-FU degradation by measuring intracellular 5-FU level at 2 uM measured after 6 hrs by HPLC-UV analysis", "assay_type": "functional, cell-based", "conditions": "filed as antagonist"}, "[17]": {"molecular_target": "T1, Sphingosine 1-phosphate receptor 2", "experiment": "Antagonist activity at S1PR2 in human SW620/5-FU cells assessed as reduction of DPD-catalyzed 5-FU degradation by measuring intracellular FBAL level at 2 uM measured after 6 hrs by HPLC-UV analysis", "assay_type": "functional, cell-based", "conditions": "filed as antagonist"}, "[18]": {"experiment": "Half life in Sprague-Dawley rat plasma at 1 mg/kg, iv measured for 24 hrs by LC-MS/MS analysis", "assay_type": "ADME, organism-based"}, "[19]": {"experiment": "AUC (0 to t) in Sprague-Dawley rat plasma at 1 mg/kg, iv measured for 24 hrs by LC-MS/MS analysis", "assay_type": "ADME, organism-based", "set-up": "dose 1 mg/kg, time 24 hrs"}, "[20]": {"experiment": "AUC (0 to infinity) in Sprague-Dawley rat blood at 1 mg/kg, iv by LC-MS/MS analysis", "assay_type": "ADME, organism-based", "set-up": "route intravenous, time infinity, dose 1 mg/kg"}, "[21]": {"experiment": "AUC (0 to infinity) in Sprague-Dawley rat plasma at 1 mg/kg, iv by LC-MS/MS analysis", "assay_type": "ADME, organism-based", "set-up": "time infinity, route intravenous, dose 1 mg/kg"}, "[22]": {"experiment": "Volume of distribution in Sprague-Dawley rat blood at 1 mg/kg, iv measured for 24 hrs by LC-MS/MS analysis", "assay_type": "ADME, organism-based"}, "[23]": {"experiment": "Volume of distribution in Sprague-Dawley rat plasma at 1 mg/kg, iv measured for 24 hrs by LC-MS/MS analysis", "assay_type": "ADME, organism-based"}, "[24]": {"experiment": "Clearance in Sprague-Dawley rat blood at 1 mg/kg, iv measured for 24 hrs by LC-MS/MS analysis", "assay_type": "ADME, organism-based"}, "[25]": {"experiment": "Clearance in Sprague-Dawley rat plasma at 1 mg/kg, iv measured for 24 hrs by LC-MS/MS analysis", "assay_type": "ADME, organism-based"}, "[26]": {"experiment": "Mean residence time (0 to t) in Sprague-Dawley rat blood at 1 mg/kg, iv measured for 24 hrs by LC-MS/MS analysis", "assay_type": "ADME, organism-based"}, "[27]": {"experiment": "Mean residence time (0 to t) in Sprague-Dawley rat plasma at 1 mg/kg, iv measured for 24 hrs by LC-MS/MS analysis", "assay_type": "ADME, organism-based"}, "[28]": {"experiment": "Mean residence time (0 to infinity) in Sprague-Dawley rat blood at 1 mg/kg, iv by LC-MS/MS analysis", "assay_type": "ADME, organism-based"}, "[29]": {"experiment": "Mean residence time (0 to infinity) in Sprague-Dawley rat plasma at 1 mg/kg, iv by LC-MS/MS analysis", "assay_type": "ADME, organism-based"}, "[30]": {"experiment": "Drug concentration in Sprague-Dawley rat blood at 1 mg/kg, iv measured after 8 hrs by LC-MS/MS analysis", "assay_type": "ADME, organism-based", "conditions": "read-out: Ct"}, "[31]": {"experiment": "Plasma concentration in Sprague-Dawley rat at 1 mg/kg, iv measured after 8 hrs by LC-MS/MS analysis", "assay_type": "ADME, organism-based"}, "[32]": {"experiment": "Ratio of drug level in Sprague-Dawley rat blood to plasma at 1 mg/kg, iv measured for 24 hrs by LC-MS/MS analysis", "assay_type": "ADME, organism-based", "conditions": "blood and plasma"}, "[33]": {"test_system": "Mus musculus", "experiment": "Downregulation of DPD expression in colon of athymic nude mouse xenografted with human SW620/5-FU cells at 12.5 mg/kg/day, iv administered for 24 days in presence of 5-FU and measured on day 24 by immunohistochemistry", "assay_type": "functional, organism-based", "conditions": "time 24.0 day"}}, "note": "The source made the active and inactive calls. The rule behind the calls is not given here.", "data": [{"smiles": "Cc1nn(C)c2nc(NNC(=O)Nc3cc(Cl)nc(Cl)c3)cc(C(C)C)c12", "values": [{"measurement": "AUC(0-t) at 24 h", "setting": "[1]", "value": 0.726, "unit": "µg·h/mL"}, {"measurement": "half-life", "setting": "[2]", "value": 60, "unit": "min"}, {"measurement": "C0", "setting": "[3]", "value": 1.84, "unit": "µg/mL"}, {"measurement": "C0", "setting": "[4]", "value": 2.02, "unit": "µg/mL"}, {"measurement": "Activity", "setting": "[5]", "value": "Non-Toxic"}, {"measurement": "inhibition", "setting": "[6]", "value": "Active"}, {"measurement": "inhibition", "setting": "[7]", "value": "Active"}, {"measurement": "inhibition in vivo at 12.5 mg/kg/day", "setting": "[8]", "value": 29.9, "unit": "%"}, {"measurement": "Activity", "setting": "[9]", "value": "Toxic"}, {"measurement": "Ka", "setting": "[10]", "value": "8.21 10^4/M/s"}, {"measurement": "Dissociation rate constant (koff)", "setting": "[11]", "value": "1.61 10^-1/s"}, {"measurement": "K", "setting": "[12]", "value": "1.96 10^-6M"}, {"measurement": "EC50", "setting": "[13]", "value": 58.6, "unit": "µM"}, {"measurement": "EC50", "setting": "[14]", "value": 17.1, "unit": "µM"}, {"measurement": "EC50", "setting": "[15]", "value": 61.3, "unit": "µM"}, {"measurement": "Activity", "setting": "[16]", "value": 4.87, "unit": "mg/L"}, {"measurement": "Activity", "setting": "[17]", "value": 1.37, "unit": "mg/L"}, {"measurement": "half-life", "setting": "[18]", "value": 66, "unit": "min"}, {"measurement": "AUC(0-t) at 24 h", "setting": "[19]", "value": 0.482, "unit": "µg·h/mL"}, {"measurement": "AUC(0-inf)", "setting": "[20]", "value": 0.738, "unit": "µg·h/mL"}, {"measurement": "AUC(0-inf)", "setting": "[21]", "value": 0.484, "unit": "µg·h/mL"}, {"measurement": "Vd", "setting": "[22]", "value": 2.1, "unit": "L/kg"}, {"measurement": "Vd", "setting": "[23]", "value": 3.1, "unit": "L/kg"}, {"measurement": "clearance", "setting": "[24]", "value": 1.4, "unit": "L/h/kg"}, {"measurement": "clearance", "setting": "[25]", "value": 2.1, "unit": "L/h/kg"}, {"measurement": "MRT last at 24 h", "setting": "[26]", "value": 54, "unit": "min"}, {"measurement": "MRT last at 24 h", "setting": "[27]", "value": 54, "unit": "min"}, {"measurement": "MRT inf", "setting": "[28]", "value": 60, "unit": "min"}, {"measurement": "MRT inf", "setting": "[29]", "value": 54, "unit": "min"}, {"measurement": "concentration at 8 h", "setting": "[30]", "value": "< 0.001", "unit": "µg/mL"}, {"measurement": "concentration at 8 h", "setting": "[31]", "value": "< 0.001", "unit": "µg/mL"}, {"measurement": "blood plasma ratio at 24 h", "setting": "[32]", "value": 1.62}, {"measurement": "inhibition", "setting": "[33]", "value": "inactive"}]}]}
